Measurements reported in patent US8759535B2, “Substituted fused imidazole derivatives, pharmaceutical compositions, and methods of use thereof” (High Point Pharmaceuticals, LLC, priority 2010, dated 2014).
Where a name gives a salt, the structure may show the parent alone.

Tested on: HMOX1
Experiment: HMOX1 Protein Assay (immunostaining of HO-1 in NHLF cells, GE InCell 1000)
Format: cell-based
Settings: Homo sapiens, fold change above DMSO treated cells, 16 h; for fold induction at 5 µM: 5 μM compound; for fold induction at 3 µM: 3 μM compound (asterisk)
How it was run: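 NHLF cells seeded overnight in FGM-2, then exposed to compound or DMSO vehicle for 16 h, fixed, and immunostained for HO-1 with Hoechst nuclear counterstain; imaged on InCell 1000. Values are fold change over DMSO-treated cells, generally at 5 μM (0.8% DMSO), with asterisked entries at 3 μM.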

For Cn1c(Nc2nc3ccc(OC(F)(F)F)cc3s2)nc2cc(C(=O)NCC(C)(C)CO)ccc21 [Example 217, 1-Methyl-2-(6-trifluoromethoxy-benzothiazol-2-ylamino)-1H-benzoimidazole-5-carboxylic acid (3-hydroxy-2,2-dimethyl-propyl)-amide], the fold induction at 5 µM was 20.7.

Cn1c(Nc2nc3ccc(C(F)(F)F)cc3s2)nc2cc(C(=O)O)ccc21 [Example 24, 1-Methyl-2-(6-trifluoromethyl-benzothiazol-2-ylamino)-1H-benzoimidazole-5-carboxylic acid] gave a fold induction at 5 µM of 20.7.

For CNC(=O)c1ccc2c(c1)nc(Nc1nc3ccc(S(C)(=O)=O)cc3s1)n2C [Example 126, 2-(6-Methanesulfonyl-benzothiazol-2-ylamino)-1-methyl-1H-benzimidazole-5-carboxylic acid methylamide], the fold induction at 5 µM was 4.6.

In the case of Cn1c(Nc2nc3ccc(OC(F)(F)F)cc3s2)nc2cc(C(=O)NCC3COCCO3)ccc21 (stereo not drawn) [Example 49, 1-Methyl-2-(6-trifluoromethoxy-benzothiazol-2-ylamino)-1H-benzoimidazole-5-carboxylic acid ([1,4]dioxan-2-ylmethyl)-amide], the fold induction at 5 µM is reported as 23.1.

Work on CO[C@H]1CCCN(C(=O)CNC(=O)c2ccc3c(c2)nc(Nc2nc4ccc(Cl)cc4s2)n3C)C1 [Example 444, 2-(6-Chloro-benzothiazol-2-ylamino)-1-methyl-1H-benzoimidazole-5-carboxylic acid [2-((S)-3-methoxy-piperidin-1-yl)-2-oxo-ethyl]-amide] yielded a fold induction at 3 µM of 32.

Cn1c(Nc2nc3ccc(Cl)cc3s2)nc2cc(C(=O)NCCOCCC#N)ccc21 [Example 266, 2-(6-Chloro-benzothiazol-2-ylamino)-1-methyl-1H-benzoimidazole-5-carboxylic acid [2-(2-cyano-ethoxy)-ethyl]-amide] showed a fold induction at 5 µM of 57.

In the case of CC(O)CNC(=O)c1cnc2c(c1)nc(Nc1nc3ccc(OC(F)(F)F)cc3s1)n2C (stereo not drawn) [Example 78, 3-Methyl-2-(6-trifluoromethoxy-benzothiazol-2-ylamino)-3H-imidazo[4,5-b]pyridine-6-carboxylic acid (2-hydroxy-propyl)-amide], the fold induction at 5 µM is reported as 28.6.

For Cn1c(Nc2nc3ccc(F)cc3s2)nc2cc(C(=O)O)ccc21 [Example 118, 2-(6-Fluoro-benzothiazol-2-ylamino)-1-methyl-1H-benzimidazole-5-carboxylic acid], the fold induction at 5 µM was 14.1.

Work on Cn1c(Nc2nc3ccc(OC(F)(F)F)cc3s2)nc2cc(C(=O)NCCCN3CCOCC3)ccc21 [Example 358, 1-Methyl-2-(6-trifluoromethoxy-benzothiazol-2-ylamino)-1H-benzoimidazole-5-carboxylic acid (3-morpholin-4-yl-propyl)-amide] yielded a fold induction at 3 µM of 11.8.

Compound Cn1c(Nc2nc3ccc(Cl)cc3s2)nc2cc(C(=O)NCC(=O)NC3CCOC3)ccc21 (stereo not drawn) [Example 384, 2-(6-Chloro-benzothiazol-2-ylamino)-1-methyl-1H-benzoimidazole-5-carboxylic acid [(tetrahydro-furan-3-ylcarbamoyl)-methyl]-amide] has a fold induction at 5 µM of 26.

For CN1CCC(N(C)C(=O)CNC(=O)c2ccc3c(c2)nc(Nc2nc4ccc(Cl)cc4s2)n3C)C1 (stereo not drawn) [Example 395, 2-(6-Chloro-benzothiazol-2-ylamino)-1-methyl-1H-benzoimidazole-5-carboxylic acid {[methyl-(1-methyl-pyrrolidin-3-yl)-carbamoyl]-methyl}-amide], the fold induction at 5 µM was 72.

For CCOC(=O)C1(NC(=O)c2ccc3c(c2)nc(Nc2nc4ccc(OC(F)(F)F)cc4s2)n3C)CC1 [Example 144, 1-{[1-Methyl-2-(6-trifluoromethoxy-benzothiazol-2-ylamino)-1H-benzimidazole-5-carbonyl]-amino}-cyclopropanecarboxylic acid ethyl ester], the fold induction at 5 µM was 7.3.

CN[C@@H]1CCN(C(=O)CNC(=O)c2ccc3c(c2)nc(Nc2nc4ccc(OC(F)(F)F)cc4s2)n3C)C1 [Example 413, 1-Methyl-2-(6-trifluoromethoxy-benzothiazol-2-ylamino)-1H-benzoimidazole-5-carboxylic acid [2-((R)-3-methylamino-pyrrolidin-1-yl)-2-oxo-ethyl]-amide hydrochloride] was tested, and the fold induction at 5 µM was 31.8.

Work on CNCC1CCN(C(=O)CNC(=O)c2ccc3c(c2)nc(Nc2nc4ccc(Cl)cc4s2)n3C)CC1 [Example 457, 2-(6-Chloro-benzothiazol-2-ylamino)-1-methyl-1H-benzoimidazole-5-carboxylic acid [2-(4-methylaminomethyl-piperidin-1-yl)-2-oxo-ethyl]-amide hydrochloride] yielded a fold induction at 5 µM of 39.9.

For CO[C@@H]1CCN(C(=O)CNC(=O)c2ccc3c(c2)nc(Nc2nc4ccc(Cl)cc4s2)n3C)C1 [Example 408, 2-(6-Chloro-benzothiazol-2-ylamino)-1-methyl-1H-benzoimidazole-5-carboxylic acid [2-((R)-3-methoxy-pyrrolidin-1-yl)-2-oxo-ethyl]-amide], the fold induction at 3 µM was 25.

With CCOc1ccc2nc(Nc3nc4cc(C(=O)NCC(=O)N(C)C)ccc4n3C)sc2c1 [Example 364, 2-(6-Ethoxy-benzothiazol-2-ylamino)-1-methyl-1H-benzoimidazole-5-carboxylic acid dimethylcarbamoylmethyl-amide] the fold induction at 3 µM was 27.8.

In the case of COCCn1c(Nc2nc3ccc(Cl)cc3s2)nc2cc(C(=O)NC3CCN(CCO)CC3)ccc21 [Example 301, 2-(6-Chloro-benzothiazol-2-ylamino)-1-(2-methoxy-ethyl)-1H-benzoimidazole-5-carboxylic acid [1-(2-hydroxy-ethyl)-piperidin-4-yl]-amide], the fold induction at 5 µM is reported as 27.8.

Work on COCCOCCNC(=O)c1ccc2c(c1)nc(Nc1nc3ccc(Cl)cc3s1)n2C [Example 261, 2-(6-Chloro-benzothiazol-2-ylamino)-1-methyl-1H-benzoimidazole-5-carboxylic acid [2-(2-methoxy-ethoxy)-ethyl]-amide] yielded a fold induction at 5 µM of 35.7.

COCC(C)NC(=O)c1ccc2c(c1)nc(Nc1nc3ccc(OC(F)(F)F)cc3s1)n2C (stereo not drawn) [Example 20, 1-Methyl-2-(6-trifluoromethoxy-benzothiazol-2-ylamino)-1H-benzoimidazole-5-carboxylic acid (2-methoxy-1-methyl-ethyl)-amide] was tested, and the fold induction at 5 µM was 18.6.

Compound Cn1c(Nc2nc3ccc(Cl)cc3s2)nc2cc(C(=O)NCC(=O)N3CCSCC3)ccc21 [Example 423, 2-(6-Chloro-benzothiazol-2-ylamino)-1-methyl-1H-benzoimidazole-5-carboxylic acid (2-oxo-2-thiomorpholin-4-yl-ethyl)-amide] has a fold induction at 5 µM of 30.2.

CN1CCN(CCCNC(=O)c2ccc3c(c2)nc(Nc2nc4ccc(OC(F)(F)F)cc4s2)n3C)CC1 [Example 355, 1-Methyl-2-(6-trifluoromethoxy-benzothiazol-2-ylamino)-1H-benzoimidazole-5-carboxylic acid [3-(4-methyl-piperazin-1-yl)-propyl]-amide] gave a fold induction at 3 µM of 26.

For Cn1c(Nc2nc3ccc(OC(F)(F)F)cc3s2)nc2cc(C(=O)NCC(=O)N3CCC(O)C3)ccc21 (stereo not drawn) [Example 398, 1-Methyl-2-(6-trifluoromethoxy-benzothiazol-2-ylamino)-1H-benzoimidazole-5-carboxylic acid [2-(3-hydroxy-pyrrolidin-1-yl)-2-oxo-ethyl]-amide], the fold induction at 5 µM was 31.7.

Cn1c(Nc2nc3ccc(Cl)cc3s2)nc2cc(C(=O)NN3CCOCC3)ccc21 [Example 321, 2-(6-Chloro-benzothiazol-2-ylamino)-1-methyl-1H-benzoimidazole-5-carboxylic acid morpholin-4-ylamide] gave a fold induction at 3 µM of 15.3.

Cn1c(Nc2nc3ccc(Cl)cc3s2)nc2cc(C(=O)NCCS(=O)(=O)CCO)ccc21 [Example 278, 2-(6-Chloro-benzothiazol-2-ylamino)-1-methyl-1H-benzoimidazole-5-carboxylic acid [2-(2-hydroxy-ethanesulfonyl)-ethyl]-amide] gave a fold induction at 3 µM of 36.5.

CNCCNC(=O)c1ccc2c(c1)nc(Nc1nc3ccc(OC(F)(F)F)cc3s1)n2C [Example 105, 1-Methyl-2-(6-trifluoromethoxy-benzothiazol-2-ylamino)-1H-benzoimidazole-5-carboxylic acid (2-methylamino-ethyl)-amide] was tested, and the fold induction at 5 µM was 17.5.

CCNC(=O)c1ccc2c(c1)nc(Nc1nc3ccc(OC(F)(F)F)cc3s1)n2C(C)C [Example 161, 1-Isopropyl-2-(6-trifluoromethoxy-benzothiazol-2-ylamino)-1H-benzoimidazole-5-carboxylic acid ethylamide] was tested, and the fold induction at 5 µM was 19.1.

CCN(CC)CCCNC(=O)c1ccc2c(c1)nc(Nc1nc3ccc(Cl)cc3s1)n2C [Example 352, 2-(6-Chloro-benzothiazol-2-ylamino)-1-methyl-1H-benzoimidazole-5-carboxylic acid (3-diethylamino-propyl)-amide] gave a fold induction at 3 µM of 20.

C[C@@H](NC(=O)c1ccc2c(c1)nc(Nc1nc3ccc(C(F)(F)F)cc3s1)n2C)C(=O)N1CCOCC1 [Example 472, 1-Methyl-2-(6-trifluoromethyl-benzothiazol-2-ylamino)-1H-benzoimidazole-5-carboxylic acid ((R)-1-methyl-2-morpholin-4-yl-2-oxo-ethyl)-amide] showed a fold induction at 3 µM of 23.

In the case of CN(C)C(=O)C(C)(C)NC(=O)c1ccc2c(c1)nc(Nc1nc3ccc(OC(F)(F)F)cc3s1)n2C [Example 151, 1-Methyl-2-(6-trifluoromethoxy-benzothiazol-2-ylamino)-1H-benzimidazole-5-carboxylic acid (1-dimethylcarbamoyl-1-methyl-ethyl)-amide], the fold induction at 5 µM is reported as 41.3.

Compound Cn1c(Nc2nc3ccc(C(F)(F)F)cc3s2)nc2cc(C(=O)NCCCCO)ccc21 [Example 221, 1-Methyl-2-(6-trifluoromethyl-benzothiazol-2-ylamino)-1H-benzoimidazole-5-carboxylic acid (4-hydroxy-butyl)-amide] has a fold induction at 3 µM of 26.
